Target: Aβ42 (Homo sapiens, UniProt P05067)
Experiment: Th-T (thioflavin-T) assay of Aβ42 aggregation
Format: biochemical

Aβ42, sequence (P05067 672-713): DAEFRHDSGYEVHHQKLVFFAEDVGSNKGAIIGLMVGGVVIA

C=C1CC[C@@H]2[C@](C)(CC[C@H]3O[C@H](C=C(C)C)C[C@@]23C)[C@@H]1Cc1c(OC)oc(CO)c(C)c1=O [Compound 20]
Fig. 7a Th-T reading, mean of three wells (column suffix _20, reading M101): 3.25 | Fig. 7a Th-T reading, mean of three wells (column suffix _20, reading M102): 3.237 | Fig. 7a Th-T reading, mean of three wells (column suffix _20, reading M103): 3.23 | Fig. 7a Th-T reading, mean of three wells (column suffix _20, reading M104): 3.246 | Fig. 7a Th-T reading, mean of three wells (column suffix _20, reading M105): 3.269 | Fig. 7a Th-T reading, mean of three wells (column suffix _20, reading M106): 3.248 | Th-T fluorescence, mean of three wells (Fig. 7a) (column suffix _50, measurement M19): 2.199 | Th-T fluorescence, mean of three wells (Fig. 7a) (column suffix _50, measurement M20): 2.217 | Th-T fluorescence, mean of three wells (Fig. 7a) (column suffix _50, measurement M21): 2.224 | Th-T fluorescence, mean of three wells (Fig. 7a) (column suffix _50, measurement M22): 2.216 | Th-T fluorescence, mean of three wells (Fig. 7a) (column suffix _50, measurement M23): 2.205 | Th-T fluorescence, mean of three wells (Fig. 7a) (column suffix _50, measurement M24): 2.2076 | Th-T fluorescence, mean of three wells (Fig. 7a) (column suffix _50, measurement M25): 2.21 | Th-T fluorescence, mean of three wells (Fig. 7a) (column suffix _50, measurement M26): 2.22 | Th-T fluorescence, mean of three wells (Fig. 7a) (column suffix _50, measurement M27): 2.2221 | Th-T fluorescence, mean of three wells (Fig. 7a) (column suffix _50, measurement M28): 2.198 | Th-T fluorescence, mean of three wells (Fig. 7a) (column suffix _50, measurement M29): 2.193 | Th-T assay signal, mean of three wells (Fig. 7a) (column suffix _50, reading M1): 0.1908 | Th-T assay signal, mean of three wells (Fig. 7a) (column suffix _50, reading M2): 0.1991 | Th-T assay signal, mean of three wells (Fig. 7a) (column suffix _50, reading M3): 0.2032 | Th-T assay signal, mean of three wells (Fig. 7a) (column suffix _50, reading M4): 0.2087 | Th-T assay signal, mean of three wells (Fig. 7a) (column suffix _50, reading M5): 0.2172 | Th-T assay signal, mean of three wells (Fig. 7a) (column suffix _50, reading M6): 0.2431 | Th-T assay signal, mean of three wells (Fig. 7a) (column suffix _50, reading M7): 0.2722 | Th-T assay signal, mean of three wells (Fig. 7a) (column suffix _50, reading M8): 0.3931 | Th-T assay signal, mean of three wells (Fig. 7a) (column suffix _50, reading M9): 0.6726 | Th-T assay signal, mean of three wells (Fig. 7a) (column suffix _50, reading M10): 1.1256 | Th-T assay signal, mean of three wells (Fig. 7a) (column suffix _50, reading M11): 1.605 | Th-T assay signal, mean of three wells (Fig. 7a) (column suffix _50, reading M12): 1.883 | Th-T assay signal, mean of three wells (Fig. 7a) (column suffix _50, reading M13): 2.0174 | Th-T assay signal, mean of three wells (Fig. 7a) (column suffix _50, reading M14): 2.101 | Th-T assay signal, mean of three wells (Fig. 7a) (column suffix _50, reading M15): 2.147 | Th-T assay signal, mean of three wells (Fig. 7a) (column suffix _50, reading M16): 2.173 | Th-T assay signal, mean of three wells (Fig. 7a) (column suffix _50, reading M17): 2.183 | Th-T assay signal, mean of three wells (Fig. 7a) (column suffix _50, reading M18): 2.192 | Fig. 7a Th-T reading, mean of three wells (column suffix _50, reading M85): 2.067 | Fig. 7a Th-T reading, mean of three wells (column suffix _50, reading M86): 2.077 | Fig. 7a Th-T reading, mean of three wells (column suffix _50, reading M87): 2.082 | Fig. 7a Th-T reading, mean of three wells (column suffix _50, reading M88): 2.092 | Fig. 7a Th-T reading, mean of three wells (column suffix _50, reading M89): 2.095 | Fig. 7a Th-T reading, mean of three wells (column suffix _50, reading M90): 2.096 | Fig. 7a Th-T reading, mean of three wells (column suffix _50, reading M91): 2.085 | Fig. 7a Th-T reading, mean of three wells (column suffix _50, reading M92): 2.089 | Fig. 7a Th-T reading, mean of three wells (column suffix _50, reading M93): 2.088 | Fig. 7a Th-T reading, mean of three wells (column suffix _50, reading M94): 2.094 | Fig. 7a Th-T reading, mean of three wells (column suffix _50, reading M95): 2.0955 | Fig. 7a Th-T reading, mean of three wells (column suffix _50, reading M96): 2.087 | Fig. 7a Th-T reading, mean of three wells (column suffix _50, reading M97): 2.084 | Fig. 7a Th-T reading, mean of three wells (column suffix _50, reading M98): 2.09 | Fig. 7a Th-T reading, mean of three wells (column suffix _50, reading M99): 2.099 | Fig. 7a Th-T reading, mean of three wells (column suffix _50, reading M100): 2.117 | Fig. 7a Th-T reading, mean of three wells (column suffix _50, reading M101): 2.093 | Fig. 7a Th-T reading, mean of three wells (column suffix _50, reading M102): 2.09 | Fig. 7a Th-T reading, mean of three wells (column suffix _50, reading M103): 2.088 | Fig. 7a Th-T reading, mean of three wells (column suffix _50, reading M104): 2.099 | Fig. 7a Th-T reading, mean of three wells (column suffix _50, reading M105): 2.107 | Fig. 7a Th-T reading, mean of three wells (column suffix _50, reading M106): 2.096 | Th-T fluorescence, mean of three wells (compound at 10, reading M41 of time course): 3.473 | Th-T fluorescence, mean of three wells (compound at 10, reading M42 of time course): 3.463 | Th-T fluorescence, mean of three wells (compound at 10, reading M43 of time course): 3.47 | Th-T fluorescence, mean of three wells (compound at 10, reading M44 of time course): 3.466 | Th-T fluorescence, mean of three wells (compound at 10, reading M45 of time course): 3.48 | Th-T fluorescence, mean of three wells (compound at 10, reading M46 of time course): 3.474 | Th-T fluorescence, mean of three wells (compound at 10, reading M47 of time course): 3.473 | Th-T fluorescence, mean of three wells (compound at 10, reading M48 of time course): 3.454 | Th-T fluorescence, mean of three wells (compound at 10, reading M49 of time course): 3.4597 | Th-T fluorescence, mean of three wells (compound at 10, reading M50 of time course): 3.479 | Th-T fluorescence, mean of three wells (compound at 10, reading M51 of time course): 3.451 | Th-T fluorescence, mean of three wells (compound at 10, reading M52 of time course): 3.467 | Th-T fluorescence, mean of three wells (compound at 10, reading M53 of time course): 3.449 | Th-T fluorescence, mean of three wells (compound at 10, reading M54 of time course): 3.468 | Th-T fluorescence, mean of three wells (compound at 10, reading M55 of time course): 3.479 | Th-T fluorescence, mean of three wells (compound at 10, reading M56 of time course): 3.4836 | Th-T fluorescence, mean of three wells (compound at 10, reading M57 of time course): 3.456 | Th-T fluorescence, mean of three wells (compound at 10, reading M58 of time course): 3.464 | Th-T fluorescence, mean of three wells (compound at 10, reading M59 of time course): 3.461 | Th-T fluorescence, mean of three wells (compound at 10, reading M60 of time course): 3.452 | Th-T fluorescence, mean of three wells (compound at 10, reading M61 of time course): 3.461 | Th-T fluorescence, mean of three wells (compound at 10, reading M62 of time course): 3.452 | Th-T fluorescence, mean of three wells (compound at 20, reading M41 of time course): 3.421 | Th-T fluorescence, mean of three wells (compound at 20, reading M42 of time course): 3.4495 | Th-T fluorescence, mean of three wells (compound at 20, reading M43 of time course): 3.4108 | Th-T fluorescence, mean of three wells (compound at 20, reading M44 of time course): 3.412 | Th-T fluorescence, mean of three wells (compound at 20, reading M45 of time course): 3.402 | Th-T fluorescence, mean of three wells (compound at 20, reading M46 of time course): 3.446 | Th-T fluorescence, mean of three wells (compound at 20, reading M47 of time course): 3.447 | Th-T fluorescence, mean of three wells (compound at 20, reading M48 of time course): 3.449 | Th-T fluorescence, mean of three wells (compound at 20, reading M49 of time course): 3.413 | Th-T fluorescence, mean of three wells (compound at 20, reading M50 of time course): 3.443 | Th-T fluorescence, mean of three wells (compound at 20, reading M51 of time course): 3.447 | Th-T fluorescence, mean of three wells (compound at 20, reading M52 of time course): 3.466 | Th-T fluorescence, mean of three wells (compound at 20, reading M53 of time course): 3.442 | Th-T fluorescence, mean of three wells (compound at 20, reading M54 of time course): 3.43 | Th-T fluorescence, mean of three wells (compound at 20, reading M55 of time course): 3.418 | Th-T fluorescence, mean of three wells (compound at 20, reading M56 of time course): 3.449 | Th-T fluorescence, mean of three wells (compound at 20, reading M57 of time course): 3.4659 | Th-T fluorescence, mean of three wells (compound at 20, reading M58 of time course): 3.449 | Th-T fluorescence, mean of three wells (compound at 20, reading M59 of time course): 3.427 | Th-T fluorescence, mean of three wells (compound at 20, reading M60 of time course): 3.432 | Th-T fluorescence, mean of three wells (compound at 20, reading M61 of time course): 3.433 | Th-T fluorescence, mean of three wells (compound at 20, reading M62 of time course): 3.454 | Th-T fluorescence, mean of three wells (compound at 50, reading M41 of time course): 2.136 | Th-T fluorescence, mean of three wells (compound at 50, reading M42 of time course): 2.134 | Th-T fluorescence, mean of three wells (compound at 50, reading M43 of time course): 2.091 | Th-T fluorescence, mean of three wells (compound at 50, reading M44 of time course): 2.118 | Th-T fluorescence, mean of three wells (compound at 50, reading M45 of time course): 2.11 | Th-T fluorescence, mean of three wells (compound at 50, reading M46 of time course): 2.107 | Th-T fluorescence, mean of three wells (compound at 50, reading M47 of time course): 2.113 | Th-T fluorescence, mean of three wells (compound at 50, reading M48 of time course): 2.125 | Th-T fluorescence, mean of three wells (compound at 50, reading M49 of time course): 2.092 | Th-T fluorescence, mean of three wells (compound at 50, reading M50 of time course): 2.091 | Th-T fluorescence, mean of three wells (compound at 50, reading M51 of time course): 2.089 | Th-T fluorescence, mean of three wells (compound at 50, reading M52 of time course): 2.103 | Th-T fluorescence, mean of three wells (compound at 50, reading M53 of time course): 2.105
